Reference: ChEMBL document CHEMBL1201862, “PubChem BioAssay data set” (2004)
Active and inactive are the calls of the source. For most assays here, no stated cut-off is given here; in the data, actives have a measured IC50 and inactives only a lower limit.

Assays:
[1] = target: T1, Tyrosine-protein phosphatase non-receptor type 7 (Homo sapiens, UniProt P35236); test: redox-dependent HePTP inhibition, mechanism study, biochemical, fluorescence (AID 2068); format: functional
T1 sequence (P35236 whole entry): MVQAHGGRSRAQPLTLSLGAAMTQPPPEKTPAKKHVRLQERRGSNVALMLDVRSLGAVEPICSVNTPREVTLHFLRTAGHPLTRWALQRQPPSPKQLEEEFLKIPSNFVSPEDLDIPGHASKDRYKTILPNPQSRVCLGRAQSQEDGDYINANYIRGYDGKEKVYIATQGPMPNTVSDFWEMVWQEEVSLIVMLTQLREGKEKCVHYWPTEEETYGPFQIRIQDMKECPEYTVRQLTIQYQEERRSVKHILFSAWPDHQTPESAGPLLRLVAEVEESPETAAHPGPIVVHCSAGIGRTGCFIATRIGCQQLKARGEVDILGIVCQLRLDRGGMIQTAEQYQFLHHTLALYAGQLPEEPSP

[2] = target: T2, Tyrosine-protein phosphatase non-receptor type 12 (Homo sapiens, UniProt Q05209); test: SAR Selectivity Analysis of small molecule inhibitors of PEST using pCAP in a fluorescence assay. [Related pubchem assays (depositor defined):AID1779, AID1784, AID2135]; format: functional
T2 sequence (Q05209 whole entry): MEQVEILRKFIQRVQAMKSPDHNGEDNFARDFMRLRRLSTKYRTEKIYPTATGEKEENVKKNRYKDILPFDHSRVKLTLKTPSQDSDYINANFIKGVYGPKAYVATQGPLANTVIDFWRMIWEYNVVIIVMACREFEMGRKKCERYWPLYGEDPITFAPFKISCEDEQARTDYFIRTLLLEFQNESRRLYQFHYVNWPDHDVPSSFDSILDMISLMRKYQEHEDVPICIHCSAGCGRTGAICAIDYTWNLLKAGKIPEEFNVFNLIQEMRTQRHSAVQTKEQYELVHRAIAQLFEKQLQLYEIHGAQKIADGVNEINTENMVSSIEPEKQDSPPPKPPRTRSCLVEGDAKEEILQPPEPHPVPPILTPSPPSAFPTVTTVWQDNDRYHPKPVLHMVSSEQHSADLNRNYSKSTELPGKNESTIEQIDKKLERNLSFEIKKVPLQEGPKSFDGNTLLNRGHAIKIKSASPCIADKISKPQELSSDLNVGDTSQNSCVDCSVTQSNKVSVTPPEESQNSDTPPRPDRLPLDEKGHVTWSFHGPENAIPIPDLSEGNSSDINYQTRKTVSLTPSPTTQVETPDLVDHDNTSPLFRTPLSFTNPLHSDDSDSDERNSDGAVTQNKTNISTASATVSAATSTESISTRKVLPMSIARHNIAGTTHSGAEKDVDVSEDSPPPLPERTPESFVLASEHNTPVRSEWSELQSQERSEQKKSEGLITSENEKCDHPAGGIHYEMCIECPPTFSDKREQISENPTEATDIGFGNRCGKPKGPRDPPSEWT

[3] = target: T3, Dual specificity protein phosphatase 3 (Homo sapiens, UniProt P51452); test: SAR VHR1 Fluorescent Assay for In Vitro dose response studies. [Related pubchem assays (depositor defined):AID1654, AID1661, AID1878, AID1992, AID2004, AID2070, AID2085]; format: functional
[4] = target: T3, Dual specificity protein phosphatase 3; test: MOA VHR1 Fluorescent secondary assay for identification of redox-state modulating compounds. [Related pubchem assays (depositor defined):AID1654, AID1661, AID1878, AID1957]
[5] = target: T4, Tyrosine-protein phosphatase non-receptor type 22 (Homo sapiens, UniProt Q9Y2R2); test: SAR LYP1 Fluorescent Assay using OMFP substrate for In Vitro dose response studies - Set 3. [Related pubchem assays (depositor defined):AID1779, AID1784, AID2140, AID2686]; format: functional
T4 sequence (Q9Y2R2 whole entry): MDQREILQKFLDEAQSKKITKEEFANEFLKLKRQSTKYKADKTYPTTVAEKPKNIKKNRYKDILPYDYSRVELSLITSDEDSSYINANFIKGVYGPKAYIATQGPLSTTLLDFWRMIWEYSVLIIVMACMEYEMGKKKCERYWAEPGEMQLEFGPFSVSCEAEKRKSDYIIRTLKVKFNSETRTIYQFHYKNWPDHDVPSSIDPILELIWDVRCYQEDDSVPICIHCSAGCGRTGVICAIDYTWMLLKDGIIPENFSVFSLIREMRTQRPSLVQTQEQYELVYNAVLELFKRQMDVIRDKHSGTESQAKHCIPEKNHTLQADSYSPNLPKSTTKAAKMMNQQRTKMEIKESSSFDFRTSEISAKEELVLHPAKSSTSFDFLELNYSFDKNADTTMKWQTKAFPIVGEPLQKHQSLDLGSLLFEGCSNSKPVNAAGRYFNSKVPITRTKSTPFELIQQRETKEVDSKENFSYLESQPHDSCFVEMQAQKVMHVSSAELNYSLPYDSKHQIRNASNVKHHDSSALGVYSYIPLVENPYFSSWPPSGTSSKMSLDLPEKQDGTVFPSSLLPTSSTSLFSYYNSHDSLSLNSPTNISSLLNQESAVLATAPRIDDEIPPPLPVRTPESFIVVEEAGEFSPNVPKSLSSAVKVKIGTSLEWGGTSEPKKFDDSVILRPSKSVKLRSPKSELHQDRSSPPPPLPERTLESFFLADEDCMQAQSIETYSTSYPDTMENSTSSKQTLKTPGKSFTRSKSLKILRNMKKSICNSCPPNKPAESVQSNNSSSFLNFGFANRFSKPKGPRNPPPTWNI

[6] = target: T3, Dual specificity protein phosphatase 3; test: SAR VHR1 Fluorescent Assay for In Vitro dose response studies Set 2. [Related pubchem assays (depositor defined):AID1654, AID1661, AID1878]; format: functional
[7] = target: T1, Tyrosine-protein phosphatase non-receptor type 7; test: HePTP (PTPN7) phosphatase inhibitor potency, SAR follow-up, biochemical, set 2 (AID 449736); format: functional
[8] = target: T5, Dual specificity protein phosphatase 6 (Rattus norvegicus, UniProt Q64346); format: functional;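 further: confirmatory in vitro dose-response testing of MKP-3 inhibition; recombinant His-tagged MKP-3 made in E. coli BL21 with OMFP substrate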
T5 sequence (Q64346 whole entry): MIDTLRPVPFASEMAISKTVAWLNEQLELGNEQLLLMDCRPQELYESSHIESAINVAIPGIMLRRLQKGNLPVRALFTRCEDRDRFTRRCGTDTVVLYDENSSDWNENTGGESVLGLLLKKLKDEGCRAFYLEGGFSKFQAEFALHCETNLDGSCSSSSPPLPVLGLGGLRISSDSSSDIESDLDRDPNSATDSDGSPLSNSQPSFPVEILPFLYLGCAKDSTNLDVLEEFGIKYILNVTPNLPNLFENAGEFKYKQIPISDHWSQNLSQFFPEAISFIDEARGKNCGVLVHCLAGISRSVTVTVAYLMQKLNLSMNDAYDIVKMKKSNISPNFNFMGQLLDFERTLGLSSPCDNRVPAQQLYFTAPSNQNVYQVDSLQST

[9] = target: Signal transducer and activator of transcription 3 (Homo sapiens, UniProt P40763); test: STAT3 activators, late-stage profile, late-stage follow-up, cell-based, STAT1 reporter, BCL3 qPCR, cytotoxicity, panel member STAT3 Activation (AID 2049)
[10] = target: Cystic fibrosis transmembrane conductance regulator/Golgi-associated PDZ and coiled-coil motif-containing protein (Homo sapiens, UniProt P13569+Q9HD26); test: CAL PDZ peptide-binding inhibitors, dose response, biochemical, fluorescence polarization, Cerulean-tagged CAL PDZ, cherry-picks (AID 504773)
Chain of Cystic fibrosis transmembrane conductance regulator/Golgi-associated PDZ and coiled-coil motif-containing protein (P13569 whole entry, other chains not shown): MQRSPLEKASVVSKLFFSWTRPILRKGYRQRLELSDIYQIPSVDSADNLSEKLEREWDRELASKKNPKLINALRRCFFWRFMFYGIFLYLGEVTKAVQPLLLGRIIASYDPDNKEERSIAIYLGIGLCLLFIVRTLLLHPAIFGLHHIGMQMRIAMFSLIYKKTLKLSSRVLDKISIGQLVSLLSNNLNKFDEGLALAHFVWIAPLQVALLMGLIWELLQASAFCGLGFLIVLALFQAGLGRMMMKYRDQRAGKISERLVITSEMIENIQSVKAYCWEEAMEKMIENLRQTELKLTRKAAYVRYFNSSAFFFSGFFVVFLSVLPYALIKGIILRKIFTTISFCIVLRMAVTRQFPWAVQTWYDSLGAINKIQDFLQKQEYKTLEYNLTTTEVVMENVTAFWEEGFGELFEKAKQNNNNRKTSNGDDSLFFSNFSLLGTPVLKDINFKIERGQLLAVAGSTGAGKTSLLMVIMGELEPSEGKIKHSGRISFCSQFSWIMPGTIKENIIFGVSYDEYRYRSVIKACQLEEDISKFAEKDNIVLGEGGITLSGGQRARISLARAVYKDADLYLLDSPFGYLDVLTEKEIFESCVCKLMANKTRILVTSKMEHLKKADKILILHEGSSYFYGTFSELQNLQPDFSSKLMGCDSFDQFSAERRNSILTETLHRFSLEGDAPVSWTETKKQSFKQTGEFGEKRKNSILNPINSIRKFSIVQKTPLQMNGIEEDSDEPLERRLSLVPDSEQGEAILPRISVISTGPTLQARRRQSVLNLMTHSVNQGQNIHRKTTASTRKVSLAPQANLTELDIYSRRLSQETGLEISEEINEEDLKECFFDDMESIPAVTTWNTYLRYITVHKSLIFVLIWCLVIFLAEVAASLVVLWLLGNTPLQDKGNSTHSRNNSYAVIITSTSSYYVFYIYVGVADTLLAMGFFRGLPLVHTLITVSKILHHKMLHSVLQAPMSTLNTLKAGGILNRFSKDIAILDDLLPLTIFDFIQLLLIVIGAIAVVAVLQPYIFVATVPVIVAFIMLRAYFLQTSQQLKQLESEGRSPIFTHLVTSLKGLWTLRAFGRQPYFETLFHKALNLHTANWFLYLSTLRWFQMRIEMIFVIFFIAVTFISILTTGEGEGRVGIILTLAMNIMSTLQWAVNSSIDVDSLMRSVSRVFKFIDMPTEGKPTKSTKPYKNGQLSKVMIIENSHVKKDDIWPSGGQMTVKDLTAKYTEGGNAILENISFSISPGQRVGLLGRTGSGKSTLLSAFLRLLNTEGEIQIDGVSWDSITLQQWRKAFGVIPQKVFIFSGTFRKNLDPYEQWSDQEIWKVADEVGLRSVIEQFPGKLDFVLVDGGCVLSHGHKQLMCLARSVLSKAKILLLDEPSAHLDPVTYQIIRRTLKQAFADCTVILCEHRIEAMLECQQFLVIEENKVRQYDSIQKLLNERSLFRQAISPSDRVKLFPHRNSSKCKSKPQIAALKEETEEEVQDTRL

T3 sequence (P51452 whole entry): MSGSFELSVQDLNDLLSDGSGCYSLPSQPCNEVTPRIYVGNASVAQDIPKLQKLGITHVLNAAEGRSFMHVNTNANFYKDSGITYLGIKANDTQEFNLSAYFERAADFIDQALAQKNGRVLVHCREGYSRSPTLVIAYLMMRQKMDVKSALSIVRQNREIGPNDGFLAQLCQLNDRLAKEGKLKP
Chain of Signal transducer and activator of transcription 3 (P40763 whole entry): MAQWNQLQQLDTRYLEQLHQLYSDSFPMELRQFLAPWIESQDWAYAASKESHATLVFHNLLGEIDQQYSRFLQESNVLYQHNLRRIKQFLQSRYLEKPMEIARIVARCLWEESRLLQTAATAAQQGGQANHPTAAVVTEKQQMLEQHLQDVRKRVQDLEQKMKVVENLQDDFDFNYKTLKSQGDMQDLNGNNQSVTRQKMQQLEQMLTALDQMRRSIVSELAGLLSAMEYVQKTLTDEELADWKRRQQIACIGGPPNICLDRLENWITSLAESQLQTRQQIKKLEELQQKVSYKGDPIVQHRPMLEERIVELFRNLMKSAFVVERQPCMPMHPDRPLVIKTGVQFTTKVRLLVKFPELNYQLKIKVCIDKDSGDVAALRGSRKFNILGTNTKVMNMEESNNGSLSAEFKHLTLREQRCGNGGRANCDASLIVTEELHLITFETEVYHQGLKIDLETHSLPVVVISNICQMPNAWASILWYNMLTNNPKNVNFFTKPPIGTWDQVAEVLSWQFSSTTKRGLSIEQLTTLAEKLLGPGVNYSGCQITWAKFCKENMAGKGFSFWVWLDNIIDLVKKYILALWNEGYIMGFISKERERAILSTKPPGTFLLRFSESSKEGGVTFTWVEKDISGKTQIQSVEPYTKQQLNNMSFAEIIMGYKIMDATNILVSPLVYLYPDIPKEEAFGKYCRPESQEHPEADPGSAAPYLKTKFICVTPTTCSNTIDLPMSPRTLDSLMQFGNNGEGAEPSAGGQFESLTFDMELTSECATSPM

CCOC(=O)C1=C(C)N=c2s/c(=C/c3cc(Cl)c(OCC(=O)O)c(OC)c3)c(=O)n2C1c1ccccc1Cl (stereo not given)
active: IC50 [1] 1.65 µM | IC50 [2] 7.63 µM | IC50 [3] 15.1 µM | IC50 [4] 3.07 µM | IC50 [5] 30.5 µM | IC50 [6] 41.1 µM | IC50 [7] 1.72 µM | IC50 [8] 39.5 µM

O=C(Nc1ccccc1Cl)c1cc(C2CC2)on1
active: EC50 [9] 6.08 µM

OC(c1ccccc1)(c1ccccc1)c1nccc2ccccc12
active: AC50 [10] 44.9 µM
